Experimental data reported in patent US10144732B2 (BIOGEN MA INC., priority 2014, dated 2018).
Where a name gives a salt, the structure may show the parent alone.

target: T1, Human ATX protein (Homo sapiens, UniProt Q13822); assay: ATX biochemical assay (FRET, FS-3 substrate); conditions: FRET assay, FS-3 2 μM, ATX 1.0 μg/mL, 30 minutes preincubation, 2 hours reaction at room temperature; read-out: IC50
T1 construct: made in house
Summary of the method: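 FRET read-out: cleavage of FS-3 (2 μM final) unquenches fluorescein, measured at 485/538 nm after 2 h at room temperature. Before substrate addition, in-house-expressed human autotaxin (1.0 μg/mL) sat with compound for 30 min in pH 7.4 Tris/NaCl/KCl/CaCl2/MgCl2 buffer containing fatty acid free-BSA at 1 mg/mL.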

Q: For `O=C(CN[C@H]1C[C@@H](C(=O)O)C1)N1CCc2c(C(F)(F)F)nn(Cc3ccc(F)cc3)c2C1` [Example 13-28, cis-3-(2-(1-(4-Fluorobenzyl)-3-(trifluoromethyl)-4,5-dihydro-1H-pyrazolo[3,4-c]pyridin-6(7H)-yl)-2-oxoethylamino)cyclobutanecarboxylic acid TFA salt], which IC50 is on record?
A: ≤ 0.1 µM

Q: Which IC50 does the source give for `O=C(CN[C@H]1C[C@H](C(=O)O)C1)N1CCc2c(C(F)(F)F)nn(Cc3ccc(F)cc3)c2C1` [Example 13-29, trans-3-(2-(1-(4-Fluorobenzyl)-3-(trifluoromethyl)-4,5-dihydro-1H-pyrazolo[3,4-c]pyridin-6(7H)-yl)-2-oxoethylamino)cyclobutanecarboxylic acid TFA salt] here?
A: ≤ 0.1 µM

Q: `O=C(CN[C@H]1CC[C@@H](C(=O)O)CC1)N1CCc2c(C(F)(F)F)nn(Cc3ccc(F)cc3)c2C1` [Example 13-30, cis-4-(2-(1-(4-Fluorobenzyl)-3-(trifluoromethyl)-4,5-dihydro-1H-pyrazolo[3,4-c]pyridin-6(7H)-yl)-2-oxoethylamino)cyclohexanecarboxylic acid TFA salt] was tested. Which IC50 did it give?
A: ≤ 0.1 µM

Q: Which IC50 does the source give for `O=C(CN[C@H]1CC[C@H](C(=O)O)CC1)N1CCc2c(C(F)(F)F)nn(Cc3ccc(F)cc3)c2C1` [Example 13-31, trans-4-(2-(1-(4-Fluorobenzyl)-3-(trifluoromethyl)-4,5-dihydro-1H-pyrazolo[3,4-c]pyridin-6(7H)-yl)-2-oxoethylamino)cyclohexanecarboxylic acid TFA salt] here?
A: ≤ 0.1 µM

Q: With `O=C(O)CCNCC(=O)N1CCc2c(C(F)(F)F)nn(Cc3ccc(Cl)cc3F)c2C1` [Example 13-32, 3-(2-(1-(4-Chloro-2-fluorobenzyl)-3-(trifluoromethyl)-4,5-dihydro-1H-pyrazolo[3,4-c]pyridin-6(7H)-yl)-2-oxoethylamino)propanoic acid TFA salt] as the compound, how does the IC50 read?
A: ≤ 0.1 µM

Q: With `O=C(O)CCCCC(=O)N1CCc2c(C(F)(F)F)nn(Cc3ccc(Cl)cc3F)c2C1` [Example 14-1, 6-(1-(4-Chloro-2-fluorobenzyl)-3-(trifluoromethyl)-4,5-dihydro-1H-pyrazolo[3,4-c]pyridin-6(7H)-yl)-6-oxohexanoic acid] as the compound, how does the IC50 read?
A: ≤ 0.1 µM

Q: With `O=C(O)CCCC(=O)N1CCc2c(C(F)(F)F)nn(Cc3ccc(Cl)cc3F)c2C1` [Example 14-2, 5-(1-(4-Chloro-2-fluorobenzyl)-3-(trifluoromethyl)-4,5-dihydro-1H-pyrazolo[3,4-c]pyridin-6(7H)-yl)-5-oxopentanoic acid] as the compound, how does the IC50 read?
A: ≤ 0.1 µM

Q: With `O=C(O)CCC(=O)N1CCc2c(C(F)(F)F)nn(Cc3ccc(Cl)cc3F)c2C1` [Example 14-3, 4-(1-(4-Chloro-2-fluorobenzyl)-3-(trifluoromethyl)-4,5-dihydro-1H-pyrazolo[3,4-c]pyridin-6(7H)-yl)-4-oxobutanoic acid] as the compound, how does the IC50 read?
A: ≤ 0.1 µM

Q: How did the IC50 turn out when `O=C(O)CN1CCC(CC(=O)N2CCc3c(C(F)(F)F)nn(Cc4ccc(Cl)cc4F)c3C2)CC1` [Example 15-1, 2-(4-(2-(1-(4-Chloro-2-fluorobenzyl)-3-(trifluoromethyl)-4,5-dihydro-1H-pyrazolo[3,4-c]pyridin-6(7H)-yl)-2-oxoethyl)piperidin-1-yl)acetic acid] was run?
A: ≤ 0.1 µM

Q: With `O=C(O)CCN1CCC(C(=O)N2CCc3c(C(F)(F)F)nn(Cc4ccc(F)cc4)c3C2)C1` (centres unmarked) [Example 15-2, 3-(3-(1-(4-Fluorobenzyl)-3-(trifluoromethyl)-4,5,6,7-tetrahydro-1H-pyrazolo[3,4-c]pyridine-6-carbonyl)pyrrolidin-1-yl)propanoic acid TFA salt] as the compound, how does the IC50 read?
A: 0.1 to 0.25 µM

Q: `O=C(O)CCN1CCC(C(=O)N2CCc3c(C(F)(F)F)nn(Cc4ccc(Cl)cc4F)c3C2)C1` (centres unmarked) [Example 15-3, 3-(3-(1-(4-chloro-2-fluorobenzyl)-3-(trifluoromethyl)-4,5,6,7-tetrahydro-1H-pyrazolo[3,4-c]pyridine-6-carbonyl)pyrrolidin-1-yl)propanoic acid] was tested. Which IC50 did it give?
A: > 10 µM

Q: With `O=C(O)CN1CCC(C(=O)N2CCc3c(C(F)(F)F)nn(Cc4ccc(F)cc4)c3C2)C1` (centres unmarked) [Example 15-4, 2-(3-(1-(4-Fluorobenzyl)-3-(trifluoromethyl)-4,5,6,7-tetrahydro-1H-pyrazolo[3,4-c]pyridine-6-carbonyl)pyrrolidin-1-yl)acetic acid TFA salt] as the compound, how does the IC50 read?
A: ≤ 0.1 µM

Q: With `O=C(O)CN1CCC(C(=O)N2CCc3c(C(F)(F)F)nn(Cc4ccc(Cl)cc4F)c3C2)C1` (centres unmarked) [Example 15-5, 2-(3-(1-(4-Chloro-2-fluorobenzyl)-3-(trifluoromethyl)-4,5,6,7-tetrahydro-1H-pyrazolo[3,4-c]pyridine-6-carbonyl)pyrrolidin-1-yl)acetic acid TFA salt] as the compound, how does the IC50 read?
A: ≤ 0.1 µM

Q: `COC(=O)N1CCCC(CC(=O)N2CCc3c(C(F)(F)F)nn(Cc4ccc(F)cc4)c3C2)C1` (centres unmarked) [Example 16-1, Methyl 3-(2-(1-(4-fluorobenzyl)-3-(trifluoromethyl)-4,5-dihydro-1H-pyrazolo[3,4-c]pyridin-6(7H)-yl)-2-oxoethyl)piperidine-1-carboxylate] was tested. Which IC50 did it give?
A: ≤ 0.1 µM

Q: For `CC(=O)N1CCCC(CC(=O)N2CCc3c(C(F)(F)F)nn(Cc4ccc(F)cc4)c3C2)C1` (centres unmarked) [Example 17-1], which IC50 is on record?
A: ≤ 0.1 µM

Q: Which IC50 does the source give for `O=C(CC1CCN(c2ncccn2)CC1)N1CCc2c(C(F)(F)F)nn(Cc3ccc(F)cc3)c2C1` [Example 18-1, 1-(1-(4-Fluorobenzyl)-3-(trifluoromethyl)-4,5-dihydro-1H-pyrazolo[3,4-c]pyridin-6(7H)-yl)-2-(1-(pyrimidin-2-yl)piperidin-4-yl)ethanone TFA salt] here?
A: ≤ 0.1 µM

Q: `O=C(CC1CCN(c2ccccn2)CC1)N1CCc2c(C(F)(F)F)nn(Cc3ccc(F)cc3)c2C1` [Example 18-2, 1-(1-(4-Fluorobenzyl)-3-(trifluoromethyl)-4,5-dihydro-1H-pyrazolo[3,4-c]pyridin-6(7H)-yl)-2-(1-(pyridin-2-yl)piperidin-4-yl)ethanone TFA salt] was tested. Which IC50 did it give?
A: ≤ 0.1 µM

Q: For `O=C(CC1CCN(c2ccncn2)CC1)N1CCc2c(C(F)(F)F)nn(Cc3ccc(F)cc3)c2C1` [Example 18-3, 1-(1-(4-Fluorobenzyl)-3-(trifluoromethyl)-4,5-dihydro-1H-pyrazolo[3,4-c]pyridin-6(7H)-yl)-2-(1-(pyrimidin-4-yl)piperidin-4-yl)ethanone TFA salt], which IC50 is on record?
A: ≤ 0.1 µM

Q: Which IC50 does the source give for `O=C(CC1CCN(c2ccncc2)CC1)N1CCc2c(C(F)(F)F)nn(Cc3ccc(F)cc3)c2C1` [Example 18-4, 1-(1-(4-Fluorobenzyl)-3-(trifluoromethyl)-4,5-dihydro-1H-pyrazolo[3,4-c]pyridin-6(7H)-yl)-2-(1-(pyridin-4-yl)piperidin-4-yl)ethanone TFA salt] here?
A: ≤ 0.1 µM

Q: Which IC50 does the source give for `CS(=O)(=O)NC(=O)[C@H]1CC[C@H](CC(=O)N2CCc3c(C(F)(F)F)nn(Cc4ccc(F)cc4)c3C2)CC1` [Example 19-1, trans-4-(2-(1-(4-Fluorobenzyl)-3-(trifluoromethyl)-4,5-dihydro-1H-pyrazolo[3,4-c]pyridin-6(7H)-yl)-2-oxoethyl)-N-(methylsulfonyl)cyclohexanecarboxamide] here?
A: ≤ 0.1 µM

Q: `CS(=O)(=O)NC(=O)[C@H]1CC[C@@H](CC(=O)N2CCc3c(C(F)(F)F)nn(Cc4ccc(F)cc4)c3C2)CC1` [Example 19-2, cis-4-(2-(1-(4-fluorobenzyl)-3-(trifluoromethyl)-4,5-dihydro-1H-pyrazolo[3,4-c]pyridin-6(7H)-yl)-2-oxoethyl)-N-(methylsulfonyl)cyclohexane carboxamide] was tested. Which IC50 did it give?
A: ≤ 0.1 µM

Q: With `NC(=O)[C@H]1CC[C@@H](CC(=O)N2CCc3c(C(F)(F)F)nn(Cc4ccc(F)cc4)c3C2)CC1` [Example 20-1, cis-4-(2-(1-(4-Fluorobenzyl)-3-(trifluoromethyl)-4,5-dihydro-1H-pyrazolo[3,4-c]pyridin-6(7H)-yl)-2-oxoethyl)cyclohexanecarboxamide] as the compound, how does the IC50 read?
A: ≤ 0.1 µM

Q: With `NC(=O)[C@H]1CC[C@H](CC(=O)N2CCc3c(C(F)(F)F)nn(Cc4ccc(F)cc4)c3C2)CC1` [Example 20-2, trans-4-(2-(1-(4-Fluorobenzyl)-3-(trifluoromethyl)-4,5-dihydro-1H-pyrazolo[3,4-c]pyridin-6(7H)-yl)-2-oxoethyl)cyclohexanecarboxamide] as the compound, how does the IC50 read?
A: ≤ 0.1 µM

Q: Which IC50 does the source give for `N#C[C@H]1CC[C@@H](CC(=O)N2CCc3c(C(F)(F)F)nn(Cc4ccc(F)cc4)c3C2)CC1` [Example 21-1, cis-4-(2-(1-(4-Fluorobenzyl)-3-(trifluoromethyl)-4,5-dihydro-1H-pyrazolo[3,4-c]pyridin-6(7H)-yl)-2-oxoethyl)cyclohexanecarbonitrile] here?
A: ≤ 0.1 µM

Q: For `N#C[C@H]1CC[C@H](CC(=O)N2CCc3c(C(F)(F)F)nn(Cc4ccc(F)cc4)c3C2)CC1` [Example 21-2, trans-4-(2-(1-(4-Fluorobenzyl)-3-(trifluoromethyl)-4,5-dihydro-1H-pyrazolo[3,4-c]pyridin-6(7H)-yl)-2-oxoethyl)cyclohexanecarbonitrile], which IC50 is on record?
A: ≤ 0.1 µM

Q: For `O=C(CC1CC(N2CCC2)C1)N1CCc2c(C(F)(F)F)nn(Cc3ccc(F)cc3)c2C1` (centres unmarked) [Example 22-1, 2-(3-(Azetidin-1-yl)cyclobutyl)-1-(1-(4-fluorobenzyl)-3-(trifluoromethyl)-4,5-dihydro-1H-pyrazolo[3,4-c]pyridin-6(7H)-yl)ethanone TFA salt], which IC50 is on record?
A: ≤ 0.1 µM

Q: How did the IC50 turn out when `O=C(CC1CC(N2CC(F)(F)C2)C1)N1CCc2c(C(F)(F)F)nn(Cc3ccc(F)cc3)c2C1` (centres unmarked) [Example 22-2, TFA salt] was run?
A: ≤ 0.1 µM

Q: With `O=C(CC1CC(N2CCCC2)C1)N1CCc2c(C(F)(F)F)nn(Cc3ccc(F)cc3)c2C1` (centres unmarked) [Example 22-3, 1-(1-(4-Fluorobenzyl)-3-(trifluoromethyl)-4,5-dihydro-1H-pyrazolo[3,4-c]pyridin-6(7H)-yl)-2-(3-(pyrrolidin-1-yl)cyclobutyl)ethanone TFA salt] as the compound, how does the IC50 read?
A: ≤ 0.1 µM

Q: For `O=C(CC1CC(N2CCCCC2)C1)N1CCc2c(C(F)(F)F)nn(Cc3ccc(F)cc3)c2C1` (centres unmarked) [Example 22-4, 1-(1-(4-Fluorobenzyl)-3-(trifluoromethyl)-4,5-dihydro-1H-pyrazolo[3,4-c]pyridin-6(7H)-yl)-2-(3-(piperidin-1-yl)cyclobutyl)ethanone TFA salt], which IC50 is on record?
A: ≤ 0.1 µM
